The IC50 is the midpoint of a concentration-inhibition curve. A low value points to greater potency.

One assay deals with T1, human TLR9 (Homo sapiens, UniProt Q9NR96).
T1 construct: host or cells: HEK-Blue cells
T1 sequence (Q9NR96 26-1032): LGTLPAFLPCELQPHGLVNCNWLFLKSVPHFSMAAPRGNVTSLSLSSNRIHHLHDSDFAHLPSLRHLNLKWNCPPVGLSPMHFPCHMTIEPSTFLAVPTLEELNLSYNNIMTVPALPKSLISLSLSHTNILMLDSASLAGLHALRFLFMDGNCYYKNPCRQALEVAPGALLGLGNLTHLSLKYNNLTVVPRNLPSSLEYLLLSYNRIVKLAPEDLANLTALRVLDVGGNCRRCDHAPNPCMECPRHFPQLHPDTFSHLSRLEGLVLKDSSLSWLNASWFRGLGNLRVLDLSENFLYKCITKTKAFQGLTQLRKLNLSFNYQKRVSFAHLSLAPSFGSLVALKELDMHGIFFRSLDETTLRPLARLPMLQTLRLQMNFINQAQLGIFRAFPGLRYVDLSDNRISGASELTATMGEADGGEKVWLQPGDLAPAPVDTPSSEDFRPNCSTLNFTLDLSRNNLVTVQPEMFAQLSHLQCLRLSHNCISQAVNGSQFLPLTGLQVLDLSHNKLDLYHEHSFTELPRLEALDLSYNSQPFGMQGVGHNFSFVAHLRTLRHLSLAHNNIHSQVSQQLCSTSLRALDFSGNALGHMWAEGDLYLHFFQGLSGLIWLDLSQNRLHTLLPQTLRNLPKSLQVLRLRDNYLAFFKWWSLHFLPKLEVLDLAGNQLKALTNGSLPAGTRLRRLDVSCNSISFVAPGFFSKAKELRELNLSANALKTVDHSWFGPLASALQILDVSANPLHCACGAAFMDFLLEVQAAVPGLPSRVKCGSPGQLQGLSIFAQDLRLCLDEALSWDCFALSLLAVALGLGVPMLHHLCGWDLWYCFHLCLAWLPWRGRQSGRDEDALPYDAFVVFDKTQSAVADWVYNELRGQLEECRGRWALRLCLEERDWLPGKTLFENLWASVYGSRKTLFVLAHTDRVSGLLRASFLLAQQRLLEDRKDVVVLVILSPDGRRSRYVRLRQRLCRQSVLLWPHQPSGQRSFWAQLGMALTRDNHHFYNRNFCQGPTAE
The assay can be described thus: TLR9 inhibition reporter assay (HEK-Blue SEAP reporter). The assay is classed as cell-based. Particulars: HEK-Blue cells overexpressing human TLR9; ODN2006 5 nM; 22 hour incubation. As to the method:
(§1) TLR7/8/9 Inhibition Reporter Assays
(§2) HEK-Blue™-cells (Invivogen) overexpressing human TLR7, TLR8 or TLR9 receptors were used for screening inhibitors of these receptors using an inducible SEAP (secreted embryonic alkaline phosphatase) reporter gene under the control of the IFN-β minimal promoter fused to five NF-κB and AP-1-binding sites. Briefly, cells are seeded into Greiner 384 well plates (15000 cells per well for TLR7, 20,000 for TLR8 and 25,000 for TLR9) and then treated with test compounds in DMSO to yield a final dose response concentration range of 0.05 nM-50 μM. After a 30 minute compound pre-treatment at room temperature, the cells are then stimulated with a TLR7 ligand (gardiquimod at a final concentration of 7.5 μM), TLR8 ligand (R848 at a final concentration of 15.9 μM) or TLR9 ligand (ODN2006 at a final concentration of 5 nM) to activate NF-κB and AP-1 which induce the production of SEAP. After a 22 hour incubation at 37° C., 5% CO2, SEAP levels are determined with the addition of HEK-Blue™ Detection reagent (Invivogen), a cell culture medium that allows for detection of SEAP, according to manufacturer's specifications. The percent inhibition is determined as the % reduction in the HEK-Blue signal present in wells treated with agonist plus DMSO alone compared to wells treated with a known inhibitor.

The target in the next assay is T2, human TLR7 (Homo sapiens, UniProt Q9NYK1).
T2 construct: host or cells: HEK-Blue cells
T2 sequence (Q9NYK1 27-1049): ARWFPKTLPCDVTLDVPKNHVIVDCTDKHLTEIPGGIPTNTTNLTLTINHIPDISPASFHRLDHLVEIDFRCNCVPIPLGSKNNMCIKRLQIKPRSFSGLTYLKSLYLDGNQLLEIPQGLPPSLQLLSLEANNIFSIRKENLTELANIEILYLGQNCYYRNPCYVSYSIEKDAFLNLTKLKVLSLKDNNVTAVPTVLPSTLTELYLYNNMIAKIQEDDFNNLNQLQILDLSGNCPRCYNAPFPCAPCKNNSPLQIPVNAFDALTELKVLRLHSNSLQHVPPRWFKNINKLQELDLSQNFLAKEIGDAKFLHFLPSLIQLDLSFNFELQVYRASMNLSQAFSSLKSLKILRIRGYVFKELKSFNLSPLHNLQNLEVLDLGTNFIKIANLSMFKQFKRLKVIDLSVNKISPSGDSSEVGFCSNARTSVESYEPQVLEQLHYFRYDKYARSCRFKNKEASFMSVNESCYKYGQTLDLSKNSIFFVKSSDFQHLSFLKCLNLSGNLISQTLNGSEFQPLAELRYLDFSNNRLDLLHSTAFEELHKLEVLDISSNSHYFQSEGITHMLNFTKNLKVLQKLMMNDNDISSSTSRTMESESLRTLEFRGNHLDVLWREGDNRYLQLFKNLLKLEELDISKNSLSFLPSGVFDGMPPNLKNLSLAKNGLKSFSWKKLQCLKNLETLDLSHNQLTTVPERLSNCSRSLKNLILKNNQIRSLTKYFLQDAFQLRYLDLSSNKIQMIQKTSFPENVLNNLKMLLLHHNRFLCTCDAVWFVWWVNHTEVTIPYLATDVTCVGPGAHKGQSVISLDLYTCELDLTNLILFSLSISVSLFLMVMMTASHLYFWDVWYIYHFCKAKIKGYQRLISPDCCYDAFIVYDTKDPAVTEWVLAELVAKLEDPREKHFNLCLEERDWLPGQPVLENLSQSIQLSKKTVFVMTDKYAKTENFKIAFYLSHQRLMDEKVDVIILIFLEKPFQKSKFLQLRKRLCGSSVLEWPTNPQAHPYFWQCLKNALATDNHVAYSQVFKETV
The assay can be described thus: TLR7 inhibition reporter assay (HEK-Blue SEAP reporter). The assay is classed as cell-based. Particulars: HEK-Blue cells overexpressing human TLR7; gardiquimod 7.5 μM; 22 hour incubation. As to the method:
as §1, §2
A general note: A reporter such as luciferase makes a cellular process visible.

In the case of `COc1ccc(-c2[nH]c3ccc(NC4CCC(N(C)CCCN(C)C)CC4)cc3c2C(C)C)cc1OC` (stereo not shown) [Example 43, N1-(2-(3,4-dimethoxyphenyl)-3-isopropyl-1H-indol-5-yl)-N4-(3-(dimethylamino)propyl)-N4-methylcyclohexane-1,4-diamine], the results for the IC50 on human TLR9 and on human TLR7 were 477 nM and 252 nM, respectively.
Turning to `COc1ccc(-c2[nH]c3ccc(N4CCC(N5CCN(Cc6ccc(C)cc6)CC5)CC4)cc3c2C(C)C)cc1OC` [Example 101, 2-(3,4-dimethoxyphenyl)-3-isopropyl-5-(4-(4-(4-methylbenzyl)piperazin-1-yl)piperidin-1-yl)-1H-indole], the 50% inhibitory concentration (IC50) at human TLR9 stood at 1900 nM; on human TLR7 it was 1350 nM.
In the case of `COc1ccc(-c2[nH]c3ccc(NC4CCC(N5CCN(CCN6CCCC6)CC5)CC4)cc3c2C(C)C)cc1OC` (stereo not shown) [Example 64, 2-(3,4-dimethoxyphenyl)-3-isopropyl-N-(4-(4-(2-(pyrrolidin-1-yl)ethyl)piperazin-1-yl)cyclohexyl)-1H-indol-5-amine], the IC50 on human TLR9 is 555 nM; against human TLR7 it was 357 nM.
As for `COc1ccc(-c2[nH]c3ccc(NC4CCC(N5CCN(C6CCCC6)CC5)CC4)cc3c2C(C)C)cc1OC` (stereo not shown) [Example 57, N-(4-(4-cyclopentylpiperazin-1-yl)cyclohexyl)-2-(3,4-dimethoxyphenyl)-3-isopropyl-1H-indol-5-amine], the half-inhibitory concentration (IC50) against human TLR9 was 460 nM; against human TLR7, 353 nM.
Take `COc1ccc(-c2[nH]c3ccc(NC4CCC(N5CCN(Cc6ccc(C)cc6)CC5)CC4)cc3c2C(C)C)cc1OC` (stereo not shown) [Example 65, 2-(3,4-dimethoxyphenyl)-3-isopropyl-N-(4-(4-(4-methylbenzyl)piperazin-1-yl)cyclohexyl)-1H-indol-5-amine]: the 50% inhibitory concentration (IC50) stood at 588 nM on human TLR9 and 1180 nM against human TLR7.
Regarding `COc1ccc(-c2[nH]c3ccc(N4CCC(N5CCC(N(C)C)CC5)CC4)cc3c2C(C)C)cc1OC` [Example 83, 1′-(2-(3,4-dimethoxyphenyl)-3-isopropyl-1H-indol-5-yl)-N,N-dimethyl-[1,4′-bipiperidin]-4-amine], the values for the IC50 against human TLR9 and at human TLR7 were 1290 nM and 287 nM, respectively.
Turning to `COc1ccc(-c2[nH]c3ccc(NC4CCC(N5CCC(N(C)C)CC5)CC4)cc3c2C(C)C)cc1OC` (stereo not shown) [Example 46, 2-(3,4-dimethoxyphenyl)-N-(4-(4-(dimethylamino)piperidin-1-yl)cyclohexyl)-3-isopropyl-H-indol-5-amine], the IC50 at human TLR9 worked out at 817 nM; against human TLR7, 1050 nM.
For the compound `COc1ccc(-c2[nH]c3ccc(NC4CCC(NCCCN(C)C)CC4)cc3c2C(C)C)cc1OC` (stereo not shown) [Example 36, N1-(2-(3,4-dimethoxyphenyl)-3-isopropyl-1H-indol-5-yl)-N4-(3-(dimethylamino)propyl) cyclohexane-1,4-diamine], the half-maximal inhibitory concentration (IC50) came to 583 nM against human TLR9 and 225 nM on human TLR7.
Take `CCc1c(-c2ccc(OC)c(OC)c2)[nH]c2ccc(N3CCC(OC4CCN(CC)CC4)CC3)cc12` [Example 188, 2-(3,4-dimethoxyphenyl)-3-ethyl-5-(4-((1-ethylpiperidin-4-yl)oxy)piperidin-1-yl)-1H-indole]: the IC50 was 986 nM against human TLR9 and 161 nM at human TLR7.
Regarding `CCN1CCN(C2CCC(Nc3ccc4[nH]c(-c5ccc(OC)c(OC)c5)c(C(C)C)c4c3)CC2)CC1` (stereo not shown) [Example 39, 2-(3,4-dimethoxyphenyl)-N-(4-(4-ethylpiperazin-1-yl)cyclohexyl)-3-isopropyl-1H-indol-5-amine], the results for the half-inhibitory concentration (IC50) at human TLR9 and against human TLR7 were 1230 nM and 242 nM, respectively.
Regarding `CCN1CCC(N2CCN(c3ccc4[nH]c(-c5ccnc6[nH]ccc56)c(C)c4c3)CC2)CC1` [Example 145, 4-(5-(4-(1-ethylpiperidin-4-yl)piperazin-1-yl)-3-methyl-1H-indol-2-yl)-1H-pyrrolo[2,3-b]pyridine], the IC50 was found to be 197 nM against human TLR9 and 2460 nM against human TLR7.
In the same order, the values of `COc1ccc(-c2[nH]c3ccc(NC4CCC(NCCN5CCOCC5)CC4)cc3c2C(C)C)cc1OC` (stereo not shown) [Example 48, N1-(2-(3,4-dimethoxyphenyl)-3-isopropyl-1H-indol-5-yl)-N4-(2-morpholinoethyl)cyclohexane-1,4-diamine] are 1250 nM and 322 nM.
Take `CCc1c(-c2ccc(OC)c(OC)c2)[nH]c2ccc(NC3CCN(C4CCN(C)CC4)CC3)cc12` [Example 125, 2-(3,4-dimethoxyphenyl)-3-ethyl-N-(1′-methyl-[1,4′-bipiperidin]-4-yl)-1H-indol-5-amine]: the 50% inhibitory concentration (IC50) at human TLR9 stood at 758 nM; on human TLR7, 376 nM.
Turning to `COCCN1CCN(C2CCC(Nc3ccc4[nH]c(-c5ccc(OC)c(OC)c5)c(C(C)C)c4c3)CC2)CC1` (stereo not shown) [Example 54, 2-(3,4-dimethoxyphenyl)-3-isopropyl-N-(4-(4-(2-methoxyethyl)piperazin-1-yl)cyclohexyl)-1H-indol-5-amine], the figures for the concentration for half-maximal inhibition (IC50) against human TLR9 and on human TLR7 were 970 nM and 269 nM, respectively.
In the case of `COc1ccc(-c2[nH]c3ccc(N4CCC(N5CCN(C6CCCC6)CC5)CC4)cc3c2C(C)C)cc1OC` [Example 93, 5-(4-(4-cyclopentylpiperazin-1-yl)piperidin-1-yl)-2-(3,4-dimethoxyphenyl)-3-isopropyl-1H-indole], the IC50 against human TLR9 was found to be 925 nM; against human TLR7, 132 nM.
As to `COc1ccc(-c2[nH]c3ccc(N4CCC(NCCN(C)C)CC4)cc3c2C(C)C)cc1OC` [Example 75, N1-(1-(2-(3,4-dimethoxyphenyl)-3-isopropyl-1H-indol-5-yl)piperidin-4-yl)-N2,N2-dimethylethane-1,2-diamine], the figures for the IC50 against human TLR9 and at human TLR7 were 3860 nM and 206 nM, respectively.
Take `COc1ccc(-c2[nH]c3ccc(NC4CCC(NCCCN(C)C)CC4)cc3c2C(C)C)cc1OC` (stereo not shown) [Example 37, N1-(2-(3,4-dimethoxyphenyl)-3-isopropyl-1H-indol-5-yl)-N4-(3-(dimethylamino)propyl) cyclohexane-1,4-diamine]: the IC50 is 1430 nM at human TLR9 and 171 nM on human TLR7.

The values above are taken from patent US11306092B2, “Amino indole compounds useful as TLR inhibitors” (BRISTOL-MYERS SQUIBB COMPANY, priority 2017, dated 2022).
